# From PMC5564600 (Oncotarget, 2017)
# Key:
# Test in all cases: biochemical
# Assay type in all cases: binding
# panel of 442 kinases [1] = biological target: T1, panel of 442 kinases (Homo sapiens, UniProt P00533, DEL746-750); settings: EGFR(E746-A750del); for remaining activity at 1 µM: read-out: % of control at 1 µM
# T1 construct: purchased Ambit Biosciences (scanMAXX KINOMEscan)
# panel of 442 kinases [2] = biological target: T2, panel of 442 kinases (Homo sapiens, UniProt O94768); settings: DRAK2; for remaining activity at 1 µM: read-out: % of control at 1 µM
# T2 construct: purchased Ambit Biosciences (scanMAXX KINOMEscan)
# T2 sequence (O94768 1-372): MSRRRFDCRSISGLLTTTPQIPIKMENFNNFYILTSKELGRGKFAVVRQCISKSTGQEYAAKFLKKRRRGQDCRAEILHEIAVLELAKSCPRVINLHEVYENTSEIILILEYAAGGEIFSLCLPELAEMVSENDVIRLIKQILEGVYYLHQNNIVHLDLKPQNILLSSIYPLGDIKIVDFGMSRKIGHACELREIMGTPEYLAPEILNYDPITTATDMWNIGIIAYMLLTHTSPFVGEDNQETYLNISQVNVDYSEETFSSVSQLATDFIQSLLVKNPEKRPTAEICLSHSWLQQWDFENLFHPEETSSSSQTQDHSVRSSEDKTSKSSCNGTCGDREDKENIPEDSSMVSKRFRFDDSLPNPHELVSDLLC
# panel of 442 kinases [3] = biological target: T3, panel of 442 kinases (Homo sapiens, UniProt Q13188); settings: kinase MST2; for remaining activity at 1 µM: read-out: % of control at 1 µM
# T3 construct: purchased Ambit Biosciences (scanMAXX KINOMEscan)
# T3 sequence (Q13188 1-491): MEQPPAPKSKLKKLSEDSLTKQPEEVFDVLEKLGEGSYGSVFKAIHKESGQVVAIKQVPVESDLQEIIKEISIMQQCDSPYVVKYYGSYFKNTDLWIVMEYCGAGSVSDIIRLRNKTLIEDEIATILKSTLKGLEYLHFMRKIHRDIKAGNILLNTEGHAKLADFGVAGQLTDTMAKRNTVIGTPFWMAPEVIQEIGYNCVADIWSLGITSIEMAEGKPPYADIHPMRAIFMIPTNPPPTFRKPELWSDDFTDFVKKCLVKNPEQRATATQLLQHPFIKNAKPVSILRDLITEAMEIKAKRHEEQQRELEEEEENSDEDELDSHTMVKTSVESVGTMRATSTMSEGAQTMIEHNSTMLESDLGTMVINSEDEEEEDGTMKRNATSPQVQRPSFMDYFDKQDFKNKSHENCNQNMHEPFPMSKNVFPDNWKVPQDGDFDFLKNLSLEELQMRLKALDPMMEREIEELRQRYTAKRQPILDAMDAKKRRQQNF
# panel of 442 kinases [4] = biological target: T4, panel of 442 kinases (Homo sapiens, UniProt P53355); settings: DAPK1; for remaining activity at 1 µM: read-out: % of control at 1 µM
# T4 construct: purchased Ambit Biosciences (scanMAXX KINOMEscan)
# panel of 442 kinases [5] = biological target: T5, panel of 442 kinases (Homo sapiens, UniProt Q9NWZ3); settings: kinase IRAK4; for remaining activity at 1 µM: read-out: % of control at 1 µM
# T5 construct: purchased Ambit Biosciences (scanMAXX KINOMEscan)
# T5 sequence (Q9NWZ3 1-460): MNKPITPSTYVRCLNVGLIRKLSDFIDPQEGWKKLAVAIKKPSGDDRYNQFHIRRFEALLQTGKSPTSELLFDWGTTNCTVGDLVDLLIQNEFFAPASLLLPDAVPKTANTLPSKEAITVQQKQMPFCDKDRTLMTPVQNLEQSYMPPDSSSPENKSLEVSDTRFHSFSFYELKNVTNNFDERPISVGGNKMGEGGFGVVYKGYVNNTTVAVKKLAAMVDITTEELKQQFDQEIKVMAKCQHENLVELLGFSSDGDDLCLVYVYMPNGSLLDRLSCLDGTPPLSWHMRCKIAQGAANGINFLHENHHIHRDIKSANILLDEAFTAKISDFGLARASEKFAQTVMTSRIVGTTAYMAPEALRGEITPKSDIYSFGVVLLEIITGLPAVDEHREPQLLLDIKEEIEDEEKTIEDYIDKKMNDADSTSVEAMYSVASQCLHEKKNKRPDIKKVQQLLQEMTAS
# panel of 442 kinases [6] = biological target: T6, panel of 442 kinases (Homo sapiens, UniProt O95819); settings: kinase MAP4K4; for remaining activity at 1 µM: read-out: % of control at 1 µM
# T6 construct: purchased Ambit Biosciences (scanMAXX KINOMEscan)
# panel of 442 kinases [7] = biological target: T7, panel of 442 kinases (Homo sapiens, UniProt Q15759); settings: kinase p38-beta; for remaining activity at 1 µM: read-out: % of control at 1 µM
# T7 construct: purchased Ambit Biosciences (scanMAXX KINOMEscan)
# panel of 442 kinases [8] = biological target: T8, panel of 442 kinases (Homo sapiens, UniProt Q8IYT8); settings: kinase ULK2; for remaining activity at 1 µM: read-out: ULK2 (% of control at 1 µM)
# T8 construct: purchased Ambit Biosciences (scanMAXX KINOMEscan)
# T8 sequence (Q8IYT8 1-1036): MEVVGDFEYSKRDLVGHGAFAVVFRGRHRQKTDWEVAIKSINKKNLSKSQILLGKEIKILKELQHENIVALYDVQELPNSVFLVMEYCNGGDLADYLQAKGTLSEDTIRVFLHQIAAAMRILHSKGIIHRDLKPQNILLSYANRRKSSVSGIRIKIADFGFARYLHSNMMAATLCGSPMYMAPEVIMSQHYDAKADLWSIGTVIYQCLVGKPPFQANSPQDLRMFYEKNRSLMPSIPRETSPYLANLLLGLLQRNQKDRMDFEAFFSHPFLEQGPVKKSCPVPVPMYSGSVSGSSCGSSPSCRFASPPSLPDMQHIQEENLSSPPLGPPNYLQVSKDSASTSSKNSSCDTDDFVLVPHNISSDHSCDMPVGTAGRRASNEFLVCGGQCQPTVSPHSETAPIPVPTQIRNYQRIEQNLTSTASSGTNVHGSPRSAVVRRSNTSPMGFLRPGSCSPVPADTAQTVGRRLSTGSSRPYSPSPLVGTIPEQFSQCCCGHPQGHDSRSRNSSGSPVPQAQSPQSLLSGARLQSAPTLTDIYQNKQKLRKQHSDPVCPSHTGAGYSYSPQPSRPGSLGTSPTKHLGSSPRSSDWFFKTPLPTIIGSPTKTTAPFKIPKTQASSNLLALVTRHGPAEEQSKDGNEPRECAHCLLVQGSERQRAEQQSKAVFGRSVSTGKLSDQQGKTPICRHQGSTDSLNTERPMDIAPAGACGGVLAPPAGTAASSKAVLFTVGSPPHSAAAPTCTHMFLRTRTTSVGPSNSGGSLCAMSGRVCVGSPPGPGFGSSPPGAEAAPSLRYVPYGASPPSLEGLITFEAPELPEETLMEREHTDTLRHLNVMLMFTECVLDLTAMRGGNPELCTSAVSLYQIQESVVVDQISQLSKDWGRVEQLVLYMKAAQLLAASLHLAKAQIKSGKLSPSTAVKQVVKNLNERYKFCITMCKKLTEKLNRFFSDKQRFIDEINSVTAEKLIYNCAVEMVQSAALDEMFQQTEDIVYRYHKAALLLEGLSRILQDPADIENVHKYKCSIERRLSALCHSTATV
# [9] = 10 µM, read-out: % of control at 10 µM
# T1 sequence (P00533 with tags, fused parts or gaps DEL746-750): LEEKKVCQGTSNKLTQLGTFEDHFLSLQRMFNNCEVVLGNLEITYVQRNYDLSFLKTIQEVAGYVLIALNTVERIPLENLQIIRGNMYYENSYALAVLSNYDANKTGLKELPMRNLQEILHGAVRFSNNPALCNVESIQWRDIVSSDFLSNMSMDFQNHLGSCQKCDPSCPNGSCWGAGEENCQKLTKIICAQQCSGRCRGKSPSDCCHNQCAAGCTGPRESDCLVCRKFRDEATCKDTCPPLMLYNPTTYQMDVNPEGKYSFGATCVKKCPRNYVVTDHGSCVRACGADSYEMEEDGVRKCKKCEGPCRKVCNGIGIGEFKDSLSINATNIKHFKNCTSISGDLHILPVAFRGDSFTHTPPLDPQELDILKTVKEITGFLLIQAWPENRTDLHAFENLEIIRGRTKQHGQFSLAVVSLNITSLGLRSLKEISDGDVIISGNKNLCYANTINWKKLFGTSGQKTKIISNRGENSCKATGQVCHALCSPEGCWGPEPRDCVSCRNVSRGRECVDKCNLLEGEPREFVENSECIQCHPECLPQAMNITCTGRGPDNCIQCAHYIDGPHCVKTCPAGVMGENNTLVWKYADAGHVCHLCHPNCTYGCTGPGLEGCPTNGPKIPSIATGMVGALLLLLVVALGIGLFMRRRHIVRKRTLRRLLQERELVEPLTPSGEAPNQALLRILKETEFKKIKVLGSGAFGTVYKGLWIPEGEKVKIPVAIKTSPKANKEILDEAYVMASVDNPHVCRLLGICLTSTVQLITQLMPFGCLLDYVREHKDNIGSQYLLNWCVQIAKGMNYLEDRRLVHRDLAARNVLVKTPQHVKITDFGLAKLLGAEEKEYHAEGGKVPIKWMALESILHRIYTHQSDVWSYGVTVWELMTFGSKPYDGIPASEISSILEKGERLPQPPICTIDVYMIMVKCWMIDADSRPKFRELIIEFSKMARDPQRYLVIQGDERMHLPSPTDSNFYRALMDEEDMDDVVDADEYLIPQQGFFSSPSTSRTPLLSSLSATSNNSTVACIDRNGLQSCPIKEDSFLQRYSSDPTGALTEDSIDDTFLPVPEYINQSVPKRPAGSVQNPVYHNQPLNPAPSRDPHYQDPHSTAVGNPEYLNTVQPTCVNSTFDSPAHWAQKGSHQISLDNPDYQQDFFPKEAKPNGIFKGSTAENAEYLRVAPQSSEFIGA
# T4 sequence (P53355 whole entry): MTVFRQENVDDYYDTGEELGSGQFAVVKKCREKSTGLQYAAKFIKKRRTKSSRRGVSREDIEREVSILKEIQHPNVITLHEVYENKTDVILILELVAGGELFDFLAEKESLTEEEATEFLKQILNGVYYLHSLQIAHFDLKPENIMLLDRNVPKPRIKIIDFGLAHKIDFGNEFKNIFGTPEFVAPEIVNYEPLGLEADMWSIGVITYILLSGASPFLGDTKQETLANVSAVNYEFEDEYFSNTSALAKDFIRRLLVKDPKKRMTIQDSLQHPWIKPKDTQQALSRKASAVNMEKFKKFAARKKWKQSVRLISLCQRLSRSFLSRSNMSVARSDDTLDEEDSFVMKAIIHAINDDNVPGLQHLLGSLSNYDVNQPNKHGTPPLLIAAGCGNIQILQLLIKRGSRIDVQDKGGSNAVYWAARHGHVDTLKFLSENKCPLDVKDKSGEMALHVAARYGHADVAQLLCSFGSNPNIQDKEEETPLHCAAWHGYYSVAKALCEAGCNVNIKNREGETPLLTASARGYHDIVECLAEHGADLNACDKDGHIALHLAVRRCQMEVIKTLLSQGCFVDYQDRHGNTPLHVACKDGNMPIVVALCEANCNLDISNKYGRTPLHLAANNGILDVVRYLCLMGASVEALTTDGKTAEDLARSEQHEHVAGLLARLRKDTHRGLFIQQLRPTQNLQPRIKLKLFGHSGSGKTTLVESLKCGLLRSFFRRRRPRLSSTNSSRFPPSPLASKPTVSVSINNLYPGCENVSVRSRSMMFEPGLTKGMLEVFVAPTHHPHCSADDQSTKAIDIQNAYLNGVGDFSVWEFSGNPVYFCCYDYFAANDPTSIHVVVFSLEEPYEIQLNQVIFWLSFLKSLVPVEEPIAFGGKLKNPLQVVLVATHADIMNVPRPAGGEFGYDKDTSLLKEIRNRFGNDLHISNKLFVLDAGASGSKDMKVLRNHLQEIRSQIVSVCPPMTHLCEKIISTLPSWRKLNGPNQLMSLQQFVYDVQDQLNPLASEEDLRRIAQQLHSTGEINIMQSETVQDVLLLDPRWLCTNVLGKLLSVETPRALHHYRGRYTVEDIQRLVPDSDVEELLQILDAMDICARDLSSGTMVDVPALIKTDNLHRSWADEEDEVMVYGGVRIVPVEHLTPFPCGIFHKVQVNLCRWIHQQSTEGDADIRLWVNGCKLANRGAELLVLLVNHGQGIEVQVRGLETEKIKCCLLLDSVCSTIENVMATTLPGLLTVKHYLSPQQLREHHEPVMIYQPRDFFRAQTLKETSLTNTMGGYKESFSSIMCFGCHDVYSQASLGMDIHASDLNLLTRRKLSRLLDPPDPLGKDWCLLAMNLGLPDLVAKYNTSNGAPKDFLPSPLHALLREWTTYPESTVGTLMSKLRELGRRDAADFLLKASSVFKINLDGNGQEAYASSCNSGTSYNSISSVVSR
# T7 sequence (Q15759 whole entry): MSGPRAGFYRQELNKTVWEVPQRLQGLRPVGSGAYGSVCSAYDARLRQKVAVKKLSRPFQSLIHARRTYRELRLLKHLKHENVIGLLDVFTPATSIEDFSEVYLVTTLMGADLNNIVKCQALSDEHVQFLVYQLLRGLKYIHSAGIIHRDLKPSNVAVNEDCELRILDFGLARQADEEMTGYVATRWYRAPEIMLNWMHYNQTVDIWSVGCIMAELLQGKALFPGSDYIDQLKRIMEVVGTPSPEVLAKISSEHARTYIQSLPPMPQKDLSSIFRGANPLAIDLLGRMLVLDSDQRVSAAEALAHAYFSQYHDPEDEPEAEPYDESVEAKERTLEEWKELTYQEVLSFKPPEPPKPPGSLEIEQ
# T6 sequence (O95819 whole entry): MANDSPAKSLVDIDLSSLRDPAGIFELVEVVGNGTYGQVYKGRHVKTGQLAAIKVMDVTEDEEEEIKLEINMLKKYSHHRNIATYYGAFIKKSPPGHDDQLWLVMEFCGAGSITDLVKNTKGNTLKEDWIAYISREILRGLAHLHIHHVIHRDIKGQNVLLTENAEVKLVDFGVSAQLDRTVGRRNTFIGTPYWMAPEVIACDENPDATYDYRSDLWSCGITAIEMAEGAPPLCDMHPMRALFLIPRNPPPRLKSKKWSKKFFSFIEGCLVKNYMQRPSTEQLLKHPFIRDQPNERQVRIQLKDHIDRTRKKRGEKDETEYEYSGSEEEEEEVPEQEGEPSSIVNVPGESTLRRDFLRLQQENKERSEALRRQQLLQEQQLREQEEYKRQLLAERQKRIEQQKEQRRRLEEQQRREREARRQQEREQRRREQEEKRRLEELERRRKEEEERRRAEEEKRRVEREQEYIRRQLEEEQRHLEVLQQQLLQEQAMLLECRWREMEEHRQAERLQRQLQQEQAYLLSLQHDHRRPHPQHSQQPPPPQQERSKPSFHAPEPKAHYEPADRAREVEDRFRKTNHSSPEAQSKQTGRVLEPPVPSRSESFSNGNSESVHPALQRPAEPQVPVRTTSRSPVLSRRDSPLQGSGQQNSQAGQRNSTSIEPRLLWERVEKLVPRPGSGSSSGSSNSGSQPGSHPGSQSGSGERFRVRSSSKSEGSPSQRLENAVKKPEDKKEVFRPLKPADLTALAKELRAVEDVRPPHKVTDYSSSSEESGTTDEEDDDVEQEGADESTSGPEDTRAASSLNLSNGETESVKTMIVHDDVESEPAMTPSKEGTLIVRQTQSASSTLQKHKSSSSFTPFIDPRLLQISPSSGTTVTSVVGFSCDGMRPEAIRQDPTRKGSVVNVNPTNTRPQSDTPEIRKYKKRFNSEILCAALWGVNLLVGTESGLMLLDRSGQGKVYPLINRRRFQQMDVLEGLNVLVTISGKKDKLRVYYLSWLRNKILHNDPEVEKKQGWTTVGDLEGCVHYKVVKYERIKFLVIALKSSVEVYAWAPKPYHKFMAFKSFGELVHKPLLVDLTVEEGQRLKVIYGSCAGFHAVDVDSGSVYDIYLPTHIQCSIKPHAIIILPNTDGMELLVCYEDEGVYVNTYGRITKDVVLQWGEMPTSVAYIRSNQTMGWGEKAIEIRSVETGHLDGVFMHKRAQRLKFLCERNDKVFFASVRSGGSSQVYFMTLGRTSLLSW
SMILES,remaining activity at 1 µM (panel of 442 kinases [1]),remaining activity at 10 µM (panel of 442 kinases [1]; [9]),remaining activity at 1 µM (panel of 442 kinases [2]),remaining activity at 10 µM (panel of 442 kinases [2]; [9]),remaining activity at 1 µM (panel of 442 kinases [3]),remaining activity at 10 µM (panel of 442 kinases [3]; [9]),remaining activity at 1 µM (panel of 442 kinases [4]),remaining activity at 10 µM (panel of 442 kinases [4]; [9]),remaining activity at 1 µM (panel of 442 kinases [5]),remaining activity at 10 µM (panel of 442 kinases [5]; [9]),remaining activity at 1 µM (panel of 442 kinases [6]),remaining activity at 10 µM (panel of 442 kinases [6]; [9]),remaining activity at 1 µM (panel of 442 kinases [7]),remaining activity at 10 µM (panel of 442 kinases [7]; [9]),remaining activity at 1 µM (panel of 442 kinases [8]),"remaining activity at 10 µM (panel of 442 kinases [8]; 10 µM, read-out: ULK2 (% of control at 10 µM))"
Nc1cc(C(F)(F)F)c(-c2cc(N3CCOCC3)nc(N3CCOCC3)n2)cn1 [Buparlisib],100%,100%,100%,100%,89%,84%,93%,77%,62%,67%,100%,100%,99%,91%,86%,100%
"Cn1c(=O)n(-c2ccc(C(C)(C)C#N)cc2)c2c3cc(-c4cnc5ccccc5c4)ccc3ncc21 [Dactolisib, 2-methyl-2-[4-(3-methyl-2-oxo-8-quinolin-3-yl-2,3-dihydroimidazo[4,5-c]quinolin-1-yl)-phenyl] propionitrile]",100%,,68%,,43%,,76%,,68%,,73%,,99%,,93%,
COc1ncc(-c2ccc3nccc(-c4ccnnc4)c3c2)cc1NS(=O)(=O)c1ccc(F)cc1F [Omipalisib],97%,,100%,,53%,,93%,,88%,,100%,,100%,,100%,
"FC(F)c1nc2ccccc2n1-c1nc(N2CCOCC2)nc(N2CCOCC2)n1 [ZSTK474, 2-(difluoromethyl)-1-[4,6-di(4-morpholinyl)-1,3,5-triazin-2-yl]-1H-benzimidazole]",94%,,86%,,76%,,86%,,100%,,93%,,70%,,100%,
